Results reported in patent US20150315211A1, “SMALL MOLECULES FOR THE MODULATION OF MCL-1 AND METHODS OF MODULATING CELL DEATH, CELL DIVISION, CELL DIFFERENTIATION AND METHODS OF TREATING DISORDERS” (priority 2010, published 2015).

What was measured:
MCL-1ΔNΔC [1] = experiment: High-throughput competitive FP binding screen, FITC-MCL-1 SAHB/MCL-1ΔNΔC interaction; settings: selectivity for MCL-1ΔNΔC over BCL-XLΔC targeting (BCL-XL % Bound minus MCL-1 % Bound)
BCL-XLΔC = BCL-XLΔC (Homo sapiens, UniProt Q07817); experiment: High-throughput competitive FP binding screen, FITC-BAD BH3/BCL-XLΔC interaction; settings: FITC-BAD BH3/BCL-XLΔC interaction pair, competitive FP screen
Chain of BCL-XLΔC (Q07817 1-212 limits assumed, stated change not applied): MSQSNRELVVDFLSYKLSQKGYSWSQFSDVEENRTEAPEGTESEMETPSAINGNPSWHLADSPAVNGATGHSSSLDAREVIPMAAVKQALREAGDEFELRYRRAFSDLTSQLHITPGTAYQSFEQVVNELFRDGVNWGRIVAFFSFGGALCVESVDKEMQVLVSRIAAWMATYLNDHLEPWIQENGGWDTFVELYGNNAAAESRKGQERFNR

MCL-1ΔNΔC [2] = target: MCL-1ΔNΔC (Homo sapiens, UniProt Q07820); experiment: High-throughput competitive FP binding screen, FITC-MCL-1 SAHB/MCL-1ΔNΔC interaction; design: the C-terminal alpha-helix was deleted from each of these constructs; GST (N, cleaved yes); made in house; settings: FITC-MCL-1 SAHB/MCL-1ΔNΔC interaction pair, competitive FP screen
Chain of MCL-1ΔNΔC (Homo sapiens, UniProt Q07820) (Q07820 172-320 limits assumed, stated change not applied): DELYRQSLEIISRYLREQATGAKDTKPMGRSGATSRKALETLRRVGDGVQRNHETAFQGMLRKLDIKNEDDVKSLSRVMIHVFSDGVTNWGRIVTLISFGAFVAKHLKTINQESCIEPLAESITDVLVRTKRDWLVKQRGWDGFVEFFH

## Oc1c(Cl)cc(Cl)cc1Sc1cc(Cl)cc(Cl)c1Cl
MCL-1ΔNΔC [1]
  Spec Values: 73.22
BCL-XLΔC
  BCL-XL % Bound: 100.4%
MCL-1ΔNΔC [2]
  MCL-1% Bound: 27.2%

## COc1ccc(-c2nc3scc(CCNC(=O)/C=C/c4ccco4)n3n2)cc1
MCL-1ΔNΔC [1]
  Spec Values: 46.24
BCL-XLΔC
  BCL-XL % Bound: 86.75%
MCL-1ΔNΔC [2]
  MCL-1% Bound: 40.51%

## O=C(/C=C/c1ccco1)Nc1cccc(-c2nc3ccccc3o2)c1
MCL-1ΔNΔC [1]
  Spec Values: 45.91
BCL-XLΔC
  BCL-XL % Bound: 112%
MCL-1ΔNΔC [2]
  MCL-1% Bound: 66.09%

## O=C(/C=C/c1ccco1)NCc1ccccc1
MCL-1ΔNΔC [1]
  Spec Values: 45.66
BCL-XLΔC
  BCL-XL % Bound: 101.8%
MCL-1ΔNΔC [2]
  MCL-1% Bound: 56.1%

## CN(Cc1ccc(-c2ccc(Br)cc2)o1)C(=O)c1ccc(S(N)(=O)=O)cc1
MCL-1ΔNΔC [1]
  Spec Values: 45.66
BCL-XLΔC
  BCL-XL % Bound: 115.2%
MCL-1ΔNΔC [2]
  MCL-1% Bound: 69.53%

## Cc1ccc(CN(C)C(=O)c2ccccc2OCCOc2ccccc2)o1
MCL-1ΔNΔC [1]
  Spec Values: 45.38
BCL-XLΔC
  BCL-XL % Bound: 114.2%
MCL-1ΔNΔC [2]
  MCL-1% Bound: 68.8%

## CC1CCN(C2=NN3C(=N)C(Cc4ccc(SCc5ccco5)o4)C(=O)N=C3S2)CC1 (stereo not drawn)
MCL-1ΔNΔC [1]
  Spec Values: 70.38
BCL-XLΔC
  BCL-XL % Bound: 84.68%
MCL-1ΔNΔC [2]
  MCL-1% Bound: 14.3%

## Cc1ccccc1OCC1=NN2C(=N)/C(=C\c3cccn3-c3cccc(Cl)c3)C(=O)N=C2S1
MCL-1ΔNΔC [1]
  Spec Values: 67.61
BCL-XLΔC
  BCL-XL % Bound: 92.89%
MCL-1ΔNΔC [2]
  MCL-1% Bound: 25.28%

## Cc1ccccc1OCC1=NN2C(=N)/C(=C\c3ccc(SCc4ccco4)o3)C(=O)N=C2S1
MCL-1ΔNΔC [1]
  Spec Values: 54.65
BCL-XLΔC
  BCL-XL % Bound: 73.83%
MCL-1ΔNΔC [2]
  MCL-1% Bound: 19.18%

## CS(=O)(=O)C1=NN2C(=N)/C(=C\c3ccc(-c4ccc(Cl)cc4)o3)C(=O)N=C2S1
MCL-1ΔNΔC [1]
  Spec Values: 49.33
BCL-XLΔC
  BCL-XL % Bound: 82.61%
MCL-1ΔNΔC [2]
  MCL-1% Bound: 33.28%

## CCCCSC1=C(C#N)C(=O)NC(c2ccc(OC)cc2)S1 (stereo not drawn)
MCL-1ΔNΔC [1]
  Spec Values: 74.73
BCL-XLΔC
  BCL-XL % Bound: 99.33%
MCL-1ΔNΔC [2]
  MCL-1% Bound: 24.59%

## CCCCSC1=C(C#N)C(=O)NC(c2ccco2)S1 (stereo not drawn)
MCL-1ΔNΔC [1]
  Spec Values: 73.94
BCL-XLΔC
  BCL-XL % Bound: 92.91%
MCL-1ΔNΔC [2]
  MCL-1% Bound: 18.96%

## CCSC1=C(C#N)C(=O)NC(c2ccc(O)cc2)S1 (stereo not drawn)
MCL-1ΔNΔC [1]
  Spec Values: 69.65
BCL-XLΔC
  BCL-XL % Bound: 84.82%
MCL-1ΔNΔC [2]
  MCL-1% Bound: 15.17%

## CCSC1=C(C#N)C(=O)NC(c2ccc(N(C)C)cc2)S1 (stereo not drawn)
MCL-1ΔNΔC [1]
  Spec Values: 49.2
BCL-XLΔC
  BCL-XL % Bound: 79.68%
MCL-1ΔNΔC [2]
  MCL-1% Bound: 30.49%

## CCCOC(=O)c1cc(-c2ccc(/C=C3\C(=O)NC(=O)C(C#N)=C3C)o2)ccc1Cl
MCL-1ΔNΔC [1]
  Spec Values: 97.76
BCL-XLΔC
  BCL-XL % Bound: 87.16%
MCL-1ΔNΔC [2]
  MCL-1% Bound: −10.6%

## CC1=C(C#N)C(=O)N(CCc2ccccc2)C(=O)/C1=C/c1ccc(-c2ccc(S(N)(=O)=O)cc2)o1
MCL-1ΔNΔC [1]
  Spec Values: 90.31
BCL-XLΔC
  BCL-XL % Bound: 97.35%
MCL-1ΔNΔC [2]
  MCL-1% Bound: 7.037%

## CC1=C(C#N)C(=O)N(C)C(=O)/C1=C/c1ccc(-c2cccc(Cl)c2C)o1
MCL-1ΔNΔC [1]
  Spec Values: 82.88
BCL-XLΔC
  BCL-XL % Bound: 86.24%
MCL-1ΔNΔC [2]
  MCL-1% Bound: 3.369%

## CCCOC(=O)c1cc(-c2ccc(/C=C3\C(=O)N(CCCO)C(=O)C(C#N)=C3C)o2)ccc1Cl
MCL-1ΔNΔC [1]
  Spec Values: 82.57
BCL-XLΔC
  BCL-XL % Bound: 75.5%
MCL-1ΔNΔC [2]
  MCL-1% Bound: −7.072%

## CCCN1C(=O)C(C#N)=C(C)/C(=C\c2ccc(-c3ccc(Br)cc3)o2)C1=O
MCL-1ΔNΔC [1]
  Spec Values: 81.6
BCL-XLΔC
  BCL-XL % Bound: 102.2%
MCL-1ΔNΔC [2]
  MCL-1% Bound: 20.59%

## CC1=C(C#N)C(=O)N(CC(C)O)C(=O)/C1=C/c1ccc(-c2ccc(C(=O)OC(C)C)cc2)o1 (stereo not drawn)
MCL-1ΔNΔC [1]
  Spec Values: 77.49
BCL-XLΔC
  BCL-XL % Bound: 107.7%
MCL-1ΔNΔC [2]
  MCL-1% Bound: 30.2%

## CC1=C(C#N)C(=O)N(CC(C)O)C(=O)/C1=C/c1ccc(-c2ccc(Cl)cc2)o1 (stereo not drawn)
MCL-1ΔNΔC [1]
  Spec Values: 74.32
BCL-XLΔC
  BCL-XL % Bound: 89.37%
MCL-1ΔNΔC [2]
  MCL-1% Bound: 15.04%

## C=CCN1C(=O)C(C#N)=C(C)/C(=C\c2ccc(-c3cccc(C(=O)O)c3)o2)C1=O
MCL-1ΔNΔC [1]
  Spec Values: 57.81
BCL-XLΔC
  BCL-XL % Bound: 89.24%
MCL-1ΔNΔC [2]
  MCL-1% Bound: 31.43%

## CC1=C(C#N)C(=O)N(CCc2ccccc2)C(=O)/C1=C/c1ccc(-c2ccc3c(c2)COC3=O)o1
MCL-1ΔNΔC [1]
  Spec Values: 53.97
BCL-XLΔC
  BCL-XL % Bound: 84.79%
MCL-1ΔNΔC [2]
  MCL-1% Bound: 30.81%

## CC1=C(C#N)C(O)=NC(=O)/C1=C/c1ccc(-c2cccc(C(=O)O)c2)o1
MCL-1ΔNΔC [1]
  Spec Values: 52.9
BCL-XLΔC
  BCL-XL % Bound: 89.7%
MCL-1ΔNΔC [2]
  MCL-1% Bound: 36.81%

## COC(=O)c1ccc(-c2ccc(/C=C3/C(=O)N(C)C(=O)C(C#N)=C3C)o2)cc1
MCL-1ΔNΔC [1]
  Spec Values: 52.77
BCL-XLΔC
  BCL-XL % Bound: 91.59%
MCL-1ΔNΔC [2]
  MCL-1% Bound: 38.82%

## CC1=C(C#N)C(=O)N(CCc2ccccc2)C(=O)/C1=C\c1ccc(-c2cccc(Cl)c2)o1
MCL-1ΔNΔC [1]
  Spec Values: 49.43
BCL-XLΔC
  BCL-XL % Bound: 78.77%
MCL-1ΔNΔC [2]
  MCL-1% Bound: 29.33%

## O=c1oc2cc(Cl)c(O)c(Cl)c2s1
MCL-1ΔNΔC [1]
  Spec Values: 109.9
BCL-XLΔC
  BCL-XL % Bound: 104.7%
MCL-1ΔNΔC [2]
  MCL-1% Bound: −5.219%

## O=c1oc2c(-c3cccc(Cl)c3)cc(O)cc2s1
MCL-1ΔNΔC [1]
  Spec Values: 64.95
BCL-XLΔC
  BCL-XL % Bound: 76.15%
MCL-1ΔNΔC [2]
  MCL-1% Bound: 11.2%

## Cc1ccc(C)c(S(=O)(=O)Nc2cc(Cl)c3oc(=O)sc3c2)c1
MCL-1ΔNΔC [1]
  Spec Values: 61.36
BCL-XLΔC
  BCL-XL % Bound: 86.74%
MCL-1ΔNΔC [2]
  MCL-1% Bound: 25.38%

## Cc1cccc(C(=O)Oc2ccc3oc(=O)sc3c2)c1
MCL-1ΔNΔC [1]
  Spec Values: 47.88
BCL-XLΔC
  BCL-XL % Bound: 92.24%
MCL-1ΔNΔC [2]
  MCL-1% Bound: 44.36%

## Cc1ccc(C2=NC(=O)C(Cc3cc(O)c(O)c(Br)c3)S2)cc1 (stereo not drawn)
MCL-1ΔNΔC [1]
  Spec Values: 93.98
BCL-XLΔC
  BCL-XL % Bound: 96.59%
MCL-1ΔNΔC [2]
  MCL-1% Bound: 2.607%

## O=C1N=C(Nc2cccc(Cl)c2Cl)S/C1=C/c1ccco1
MCL-1ΔNΔC [1]
  Spec Values: 73.87
BCL-XLΔC
  BCL-XL % Bound: 89.44%
MCL-1ΔNΔC [2]
  MCL-1% Bound: 15.57%

## CCOC(=O)C1=C(Nc2cccc(Cl)c2)S/C(=C\c2ccco2)C1=O
MCL-1ΔNΔC [1]
  Spec Values: 63
BCL-XLΔC
  BCL-XL % Bound: 111.2%
MCL-1ΔNΔC [2]
  MCL-1% Bound: 48.22%

## CCOC(=O)C1=C(NC(=O)c2ccccc2)S/C(=C\c2ccc(C)o2)C1=O
MCL-1ΔNΔC [1]
  Spec Values: 58.06
BCL-XLΔC
  BCL-XL % Bound: 101.2%
MCL-1ΔNΔC [2]
  MCL-1% Bound: 43.16%

## CCOC(=O)c1ccc(-c2ccc(/C=C3\S/C(=N\N=C4/C(=O)Nc5ccccc54)NC3=O)o2)cc1
MCL-1ΔNΔC [1]
  Spec Values: 53.34
BCL-XLΔC
  BCL-XL % Bound: 66.63%
MCL-1ΔNΔC [2]
  MCL-1% Bound: 13.28%

## O=C1N/C(=N/c2ccccc2)S/C1=C/C=C/c1ccco1
MCL-1ΔNΔC [1]
  Spec Values: 48.63
BCL-XLΔC
  BCL-XL % Bound: 97.59%
MCL-1ΔNΔC [2]
  MCL-1% Bound: 48.95%

## COc1ccc(/C=c2\s/c(=C\C(=O)c3ccco3)[nH]c2=O)cc1O
MCL-1ΔNΔC [1]
  Spec Values: 48.14
BCL-XLΔC
  BCL-XL % Bound: 263.7%
MCL-1ΔNΔC [2]
  MCL-1% Bound: 215.6%

## O=C1N/C(=N\c2ccc(F)cc2)S/C1=C/c1ccc(N2CCCCCC2)o1
MCL-1ΔNΔC [1]
  Spec Values: 47.38
BCL-XLΔC
  BCL-XL % Bound: 87.8%
MCL-1ΔNΔC [2]
  MCL-1% Bound: 40.42%

## CCOc1ccc(NC(=O)CC2C(=O)N(Cc3ccco3)C(=S)N2CCNC(C)=O)cc1 (stereo not drawn)
MCL-1ΔNΔC [1]
  Spec Values: 82.72
BCL-XLΔC
  BCL-XL % Bound: 102.4%
MCL-1ΔNΔC [2]
  MCL-1% Bound: 19.69%

## CN(C)/C=C1\SC(=S)N(c2ccc(Br)cc2)C1=O
MCL-1ΔNΔC [1]
  Spec Values: 79.08
BCL-XLΔC
  BCL-XL % Bound: 112.3%
MCL-1ΔNΔC [2]
  MCL-1% Bound: 33.27%

## CC(C)C(C(=O)O)N1C(=O)/C(=C/C=C/c2ccco2)SC1=S (stereo not drawn)
MCL-1ΔNΔC [1]
  Spec Values: 76.69
BCL-XLΔC
  BCL-XL % Bound: 102.8%
MCL-1ΔNΔC [2]
  MCL-1% Bound: 26.08%

## O=C(NN1C(=O)S/C(=C/C=C/c2ccco2)C1=O)c1ccccc1O
MCL-1ΔNΔC [1]
  Spec Values: 76.1
BCL-XLΔC
  BCL-XL % Bound: 95.8%
MCL-1ΔNΔC [2]
  MCL-1% Bound: 19.8%

## O=C1NC(=S)S/C1=C\c1ccc(-c2ccc(S(=O)(=O)N3CCOCC3)cc2)o1
MCL-1ΔNΔC [1]
  Spec Values: 69.33
BCL-XLΔC
  BCL-XL % Bound: 107.9%
MCL-1ΔNΔC [2]
  MCL-1% Bound: 38.57%
